According to patent US8575156B2, “Cyclic inhibitors of 11β-hydroxysteroid dehydrogenase 1” (Vitae Pharmaceuticals, Inc., priority 2007, dated 2013):

Molecular target: 11β-HSD1 (Homo sapiens, UniProt P28845)
Test: biochemical
Conditions: for IC50: IC50 Range, Biological Test Example 1, microsomes from CHO cells overexpressing human 11β-HSD1; for inhibition at 0.1 µM: read-out: Average % inhibition at 100 nM, Biological Test Example 1, 100 nM; for inhibition at 0.1111 µM: read-out: Average % inhibition at 111.1 nM, Biological Test Example 1, 111.1 nM

11β-HSD1, sequence (P28845 whole entry): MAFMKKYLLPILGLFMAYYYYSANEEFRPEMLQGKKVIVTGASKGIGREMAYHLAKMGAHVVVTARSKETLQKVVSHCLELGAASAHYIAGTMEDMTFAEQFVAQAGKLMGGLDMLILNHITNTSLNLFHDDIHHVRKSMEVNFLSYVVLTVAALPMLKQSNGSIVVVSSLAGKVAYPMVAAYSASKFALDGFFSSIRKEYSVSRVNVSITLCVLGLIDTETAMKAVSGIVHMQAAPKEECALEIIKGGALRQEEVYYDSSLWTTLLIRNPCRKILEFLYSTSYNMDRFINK

Row | IC50 | inhibition at 0.1 µM | inhibition at 0.1111 µM | Structure (SMILES)
1 | < 100 nM | 90.1% |  | C[C@@H](c1ccc(-c2ccc(F)cc2F)cc1)N1CC[C@](CCC(=O)O)(c2ccccc2)OC1=O [EXAMPLE 503, 3-((R)-3-((S)-1-(2′,4′-difluorobiphenyl-4-yl)ethyl)-2-oxo-6-phenyl-1,3-oxazinan-6-yl)propanoic acid]
2 | < 100 nM | 96.3% |  | C[C@@H](c1ccc(OCC(F)(F)F)cc1)N1CC[C@](CCC(N)=O)(c2ccc(F)cc2)OC1=O [EXAMPLE 505, 3-((R)-6-(4-fluorophenyl)-2-oxo-3-((S)-1-(4-(2,2,2-trifluoroethoxy)phenyl)ethyl)-1,3-oxazinan-6-yl)propanamide]
3 | < 100 nM | 97.7% |  | CC(=O)N(C)CCC[C@]1(c2ccccc2)CCN([C@@H](C)c2ccc(Br)cc2)C(=O)O1 [EXAMPLE 506, N-(3-((R)-3-((S)-1-(4-bromophenyl)ethyl)-2-oxo-6-phenyl-1,3-oxazinan-6-yl)propyl)-N-methylacetamide]
4 | < 100 nM | 96.1% |  | C[C@@H](c1ccc(Br)cc1)N1CC[C@](CCNS(C)(=O)=O)(c2ccccc2)OC1=O [EXAMPLE 507, N-(2-((S)-3-((S)-1-(4-bromophenyl)ethyl)-2-oxo-6-phenyl-1,3-oxazinan-6-yl)ethyl)methanesulfonamide]
5 | < 100 nM | 84.4% |  | C[C@@H](c1ccc(Br)cc1)N1CC[C@](CCN2CCCS2(=O)=O)(c2ccccc2)OC1=O [EXAMPLE 513, (S)-3-((S)-1-(4-bromophenyl)ethyl)-6-(2-(1-dioxo-isothiazolidin-2-yl)ethyl)-6-phenyl-1,3-oxazinan-2-one]
6 | < 100 nM | 93.1% |  | C[C@@H](c1ccc(Br)cc1)N1CC[C@](CCCN(C)S(C)(=O)=O)(c2ccccc2)OC1=O [EXAMPLE 514, N-(3-((R)-3-((S)-1-(4-bromophenyl)ethyl)-2-oxo-6-phenyl-1,3-oxazinan-6-yl)propyl)-N-methylmethanesulfonamide]
7 | < 100 nM | 98% |  | CC(C#N)C[C@]1(c2ccc(F)cc2)CCN([C@@H](C)c2ccc(Br)cc2)C(=O)O1 (stereo partly drawn) [EXAMPLE 520, 3-((R)-3-((S)-1-(4-bromophenyl)ethyl)-6-(4-fluorophenyl)-2-oxo-1,3-oxazinan-6-yl)-2-methylpropanenitrile]
8 | < 100 nM | 97.5% |  | C[C@@H](c1ccc(Br)cc1)N1CC[C@](CC(C)(C)C(N)=O)(c2ccc(F)cc2)OC1=O [EXAMPLE 522, 3-((R)-3-((S)-1-(4-bromophenyl)ethyl)-6-(4-fluorophenyl)-2-oxo-1,3-oxazinan-6-yl)-2,2-dimethylpropanamide]
9 | < 100 nM | 97.9% |  | C[C@@H](c1ccc(Br)cc1)N1CC[C@](CCC#N)(c2ccc(F)cc2)OC1=O [EXAMPLE 524, 3-((R)-3-((S)-1-(4-bromophenyl)ethyl)-6-(4-fluorophenyl)-2-oxo-1,3-oxazinan-6-yl)propanenitrile]
10 | < 100 nM | 54.6% |  | C[C@@H](c1ccc(Br)cc1)N1CC[C@](CCC(=O)O)(c2ccc(F)cc2)OC1=O [EXAMPLE 526, 3-((R)-3-((S)-1-(4-bromophenyl)ethyl)-6-(4-fluorophenyl)-2-oxo-1,3-oxazinan-6-yl)propanoic acid]
11 | < 100 nM | 89.7% |  | C[C@@H](c1ccc(Br)cc1)N1CC[C@](CC(=O)CO)(c2ccc(F)cc2)OC1=O [EXAMPLE 527, (S)-3-((S)-1-(4-bromophenyl)ethyl)-6-(4-fluorophenyl)-6-(3-hydroxy-2-oxopropyl)-1,3-oxazinan-2-one]
12 | < 100 nM | 98.6% |  | C[C@@H](c1ccc(Br)cc1)N1CC[C@](CC(C)(C)CO)(c2ccc(F)cc2)OC1=O [EXAMPLE 528, (R)-3-((S)-1-(4-bromophenyl)ethyl)-6-(4-fluorophenyl)-6-(3-hydroxy-2,2-dimethylpropyl)-1,3-oxazinan-2-one]
13 | < 100 nM | 93.7% |  | C[C@@H](c1ccc(Br)cc1)N1CC[C@](CCN(C)S(C)(=O)=O)(c2ccccc2)OC1=O [EXAMPLE 529, N-(2-((S)-3-((S)-1-(4-bromophenyl)ethyl)-2-oxo-6-phenyl-1,3-oxazinan-6-yl)ethyl)-N-methylmethanesulfonamide]
14 | < 100 nM | 73.3% |  | Cc1nnc(C[C@]2(c3ccccc3)CCN([C@@H](C)c3ccc(Br)cc3)C(=O)O2)o1 [EXAMPLE 530, (S)-3-((S)-1-(4-bromophenyl)ethyl)-6-((5-methyl-1,3,4-oxadiazol-2-yl)methyl)-6-phenyl-1,3-oxazinan-2-one]
15 | < 100 nM | 73.5% |  | Cc1nnc(C[C@]2(c3ccccc3)CCN([C@@H](C)c3ccc(Br)cc3)C(=O)O2)s1 [EXAMPLE 531, (S)-3-((S)-1-(4-bromophenyl)ethyl)-6-((5-methyl-1,3,4-thiadiazol-2-yl)methyl)-6-phenyl-1,3-oxazinan-2-one]
16 | < 100 nM | 96.3% |  | C[C@@H](c1ccc(C(F)(F)F)cc1)N1CC[C@](CCCO)(c2ccccc2)OC1=O [EXAMPLE 532, (R)-6-(3-hydroxypropyl)-6-phenyl-3-((S)-1-(4-(trifluoromethyl)phenyl)ethyl)-1,3-oxazinan-2-one]
17 | < 100 nM | 94.5% |  | C[C@@H](c1ccc(Cl)c(F)c1)N1CC[C@](CCO)(c2ccc(F)cc2)OC1=O [EXAMPLE 533, (S)-3-((S)-1-(4-chloro-3-fluorophenyl)ethyl)-6-(4-fluorophenyl)-6-(2-hydroxyethyl)-1,3-oxazinan-2-one]
18 | < 100 nM | 98.5% |  | C[C@@H](c1ccc(Cl)cc1F)N1CC[C@](CCCO)(c2ccc(F)cc2)OC1=O [EXAMPLE 534, (R)-3-((S)-1-(4-chloro-2-fluorophenyl)ethyl)-6-(4-fluorophenyl)-6-(3-hydroxypropyl)-1,3-oxazinan-2-one]
19 | < 100 nM | 96.8% |  | C[C@@H](c1ccc(Cl)c(F)c1)N1CC[C@](CCCNS(C)(=O)=O)(c2ccc(F)cc2)OC1=O [EXAMPLE 535, N-(3-((R)-3-((S)-1-(4-chloro-3-fluorophenyl)ethyl)-6-(4-fluorophenyl)-2-oxo-1,3-oxazinan-6-yl)propyl)methanesulfonamide]
20 | < 100 nM | 94.7% |  | CC[C@@H](c1ccc(OC(F)F)cc1)N1CC[C@](CCC(N)=O)(c2ccccc2)OC1=O [EXAMPLE 537, 3-((R)-3-((S)-1-(4-(difluoromethoxy)phenyl)propyl)-2-oxo-6-phenyl-1,3-oxazinan-6-yl)propanamide]
21 |  |  | 89.7% | Cc1cc(-c2ccc([C@H](C)N3CC[C@](CC(C)(C)O)(c4ccc(F)cc4)OC3=O)cc2)cc(C)[n+]1[O-] [EXAMPLE 557, 4-(4-((S)-1-((S)-6-(4-fluorophenyl)-6-(2-hydroxy-2-methylpropyl)-2-oxo-1,3-oxazinan-3-yl)ethyl)phenyl)-2,6-dimethylpyridine 1-oxide]
22 | < 100 nM | 97.7% |  | C[C@@H](c1ccc(-c2ccc(F)cc2)cc1)N1CC[C@](CC(C)(C)C(N)=O)(c2ccccc2)OC1=O [EXAMPLE 568, 3-((R)-3-((S)-1-(4′-fluorobiphenyl-4-yl)ethyl)-2-oxo-6-phenyl-1,3-oxazinan-6-yl)-2,2-dimethylpropanamide]
23 | < 100 nM | 97.7% |  | C[C@@H](c1ccc(Cl)cc1F)N1CC[C@](CC(C)(C)C(N)=O)(c2ccc(F)cc2)OC1=O [EXAMPLE 578, 3-((R)-3-((S)-1-(4-chloro-2-fluorophenyl)ethyl)-6-(4-fluorophenyl)-2-oxo-1,3-oxazinan-6-yl)-2,2-dimethylpropanamide]
24 | < 100 nM | 96.4% |  | C[C@@H](c1ccc(Br)cc1F)N1CC[C@](CCCO)(c2ccc(F)cc2)OC1=O [EXAMPLE 581, (R)-3-((S)-1-(4-bromo-2-fluorophenyl)ethyl)-6-(4-fluorophenyl)-6-(3-hydroxypropyl)-1,3-oxazinan-2-one]
25 |  |  | 77% | NC(=O)c1ccc(N2CCC[C@H](N3CC[C@](CCCO)(c4ccc(F)cc4)OC3=O)C2)nc1 [EXAMPLE 584, 6-((S)-3-((R)-6-(4-fluorophenyl)-6-(3-hydroxypropyl)-2-oxo-1,3-oxazinan-3-yl)piperidin-1-yl)nicotinamide]
26 | < 100 nM | 98% |  | CC(=O)N(C)CC[C@]1(c2ccccc2)CCN([C@@H](C)c2ccc(Br)cc2)C(=O)O1 [EXAMPLE 586, N-(2-((R)-3-((S)-1-(4-bromophenyl)ethyl)-2-oxo-6-phenyl-1,3-oxazinan-6-yl)ethyl)-N-methylacetamide]
27 | < 100 nM | 90.6% |  | Cc1nnc(CC[C@]2(c3ccccc3)CCN([C@@H](C)c3ccc(Br)cc3)C(=O)O2)o1 [EXAMPLE 595, (R)-3-((S)-1-(4-bromophenyl)ethyl)-6-(2-(5-methyl-1,3,4-oxadiazol-2-yl)ethyl)-6-phenyl-1,3-oxazinan-2-one]
28 | < 100 nM | 89.4% |  | Cc1nnc(CC[C@]2(c3ccccc3)CCN([C@@H](C)c3ccc(Br)cc3)C(=O)O2)s1 [EXAMPLE 601, (R)-3-((S)-1-(4-bromophenyl)ethyl)-6-(2-(5-methyl-1,3,4-thiadiazol-2-yl)ethyl)-6-phenyl-1,3-oxazinan-2-one]
29 | < 100 nM | 98.6% |  | C[C@@H](c1ccc(Cl)cc1F)N1CC[C@](CCCNS(C)(=O)=O)(c2ccc(F)cc2)OC1=O [EXAMPLE 602, N-(3-((R)-3-((S)-1-(4-chloro-2-fluorophenyl)ethyl)-6-(4-fluorophenyl)-2-oxo-1,3-oxazinan-6-yl)propyl)methanesulfonamide]
30 | < 100 nM | 85.8% |  | CC(=O)NCC(C)(C)C[C@]1(c2ccc(F)cc2)CCN([C@@H](C)c2ccc(Br)cc2)C(=O)O1 [EXAMPLE 605, N-(3-((R)-3-((S)-1-(4-bromophenyl)ethyl)-6-(4-fluorophenyl)-2-oxo-1,3-oxazinan-6-yl)-2,2-dimethylpropyl)acetamide]
